# From patent US20230043985A1, “ONCE DAILY CANCER TREATMENT REGIMEN WITH A PRMT5 INHIBITOR” (Pfizer Inc., priority 2019, published 2023)
# Columns and labels:
# [1] = Pre-clinical prediction of human in vivo plasma clearance from human liver microsomes; type: in vitro ADME; details: used as the predicted CL
# Protocol: (§1) Briefly, in vivo plasma clearance (CL) in humans was predicted to be ˜3 and ˜0.6 mL/min/kg from human liver microsomes and hepatocytes, respectively. The conservative value of ˜3 mL/min/kg from human liver microsomes was used as the predicted CL. […] A half-life (t1/2) is predicted to be ˜6 h calculated by the equation: t1/2=0.693*Vss/CL.
# [2] = Pre-clinical prediction of human in vivo plasma clearance from hepatocytes; type: in vitro ADME
# Protocol: as §1
# [3] = Pre-clinical projection of human Vss, half-life and peak to trough ratio (unbound Vss scaling from rats and dogs; t1/2=0.693*Vss/CL); details: for predicted peak to trough ratio in humans: based on ~6-hour projected half-life
# Protocol: as §1
# Moreover, based on the ˜6-hour projected half-life for Compound 1 the likely peak to trough ratio in humans was predicted to be lower following twice daily (BID) dosing (˜4) compared to once daily (QD) dosing (˜8 or more). Lower peak to trough ratios are generally more desirable because they may help to minimize potential Cmax-related adverse effects (if any) while maintaining the therapeutic effects.
# Half-life, for instance the half-life of Compound 1, refers to the time it takes for the plasma concentration of Compound 1 to decrease by 50% as calculated by the equation: 0.693*Vss/CL where Vss is the steady-state volume of distribution and CL is plasma clearance.
# [4] = Phase 1 clinical PK of Compound 1 in patients (plasma, LC-MS/MS), Study NCT03854227; type: in vivo, human
# Protocol: Peak to trough ratio refers to the ratio of the maximum concentration (Cmax) to minimum concentration (Cmin) of Compound 1 observed. Relevant to the present invention is the peak to trough ration during the dosing interval at “steady state” (day 15). Blood samples for the characterization of PK profiles were collected at pre- and post-dose on Day 1 (single dose) and Day 15 (steady state), and were analyzed for Compound 1 using a validated liquid chromatography coupled with tandem mass spectrometry (LC-MS/MS) assay. The lower limit of quantitation of the assay was 0.250 ng/mL. The representative day 1 median PK profile of Compound 1 dosed at 2 mg BID is provided at FIG. 1. The representative steady state (day 15) median PK profile of Compound 1 dosed at 2 mg BID is provided at FIG. 2. Table 1 (below) depicts representative mean maximum (Cmax) and minimum (Cmin) daily concentrations of Compound 1 at “steady state” (day 15) dosed BID at 2 mg. A population pharmacokinetic (PK) model was generated based on the preliminary PK data from 6 patients received Compound 1 orally at doses up to 2 mg BID at steady state. It was observed that actual mean peak to trough ratio at steady state (here, 15 days of dosing) of Compound 1 in the NCT03854227 clinical trial was ˜2 for BID dosing, substantially lower than that previously predicted based on pre-clinical data (˜4 for BID). Furthermore, based on this population PK model, the steady state PK profiles following QD vs BID dosing (using a 16 mg total daily dose as an example) were compared using the individual PK parameters from each of these 6 patients. […] Compound 1 was provided to patients in three cohorts as tablets ((1) 1 mg tablets (for patient dosed with 4 mg QD); and 2) 1 mg and 5 mg tablets (for patients dosed with 6 mg QD and 8 mg QD)) supplied in separate labeled bottles for oral administration. Because patients were receiving 4 mg QD, 6 mg QD, and 8 mg QD, respectively, each of them were instructed to swallow whole (i.e., without crushing or chewing) 1) four 1 mg tablets (for the 4 mg QD cohort (N=3)); 2) one 5 mg tablets and one 1 mg tablet (for the 6 mg cohort (N=6)); and 3) one 5 mg tablet and three 1 mg tablets (for the 8 mg cohort (N=2)) at the same time each morning with at least 8 oz (240 mL) of water on an empty stomach. No food or liquids other than water were consumed for 2 hours before and 1 hour following each dose administration. Patients in these cohorts took Compound 1 orally QD as described above for four cycles (a cycle is 28 days). Weekly visits to the clinic were made by the patient to evaluate the anti-cancer activity and side effects of Compound 1. FIG. 5, FIG. 6, and FIG. 7 show the Day 15 steady state median concentration-time profiles for 4 mg QD, 6 mg QD, and 8 mg QD, respectively. […]
# [5] = molecular target: T1, PRMT5 (Homo sapiens, UniProt O14744); assay: Blood pharmacodynamic biomarker plasma SDMA inhibition (LC-MS/MS) in patients; type: in vivo
# T1 construct: endogenous in cells; host or cells: tissues of the dosed subjects (in vivo); SDMA measured in plasma by LC-MS/MS
# T1 sequence (O14744 whole entry): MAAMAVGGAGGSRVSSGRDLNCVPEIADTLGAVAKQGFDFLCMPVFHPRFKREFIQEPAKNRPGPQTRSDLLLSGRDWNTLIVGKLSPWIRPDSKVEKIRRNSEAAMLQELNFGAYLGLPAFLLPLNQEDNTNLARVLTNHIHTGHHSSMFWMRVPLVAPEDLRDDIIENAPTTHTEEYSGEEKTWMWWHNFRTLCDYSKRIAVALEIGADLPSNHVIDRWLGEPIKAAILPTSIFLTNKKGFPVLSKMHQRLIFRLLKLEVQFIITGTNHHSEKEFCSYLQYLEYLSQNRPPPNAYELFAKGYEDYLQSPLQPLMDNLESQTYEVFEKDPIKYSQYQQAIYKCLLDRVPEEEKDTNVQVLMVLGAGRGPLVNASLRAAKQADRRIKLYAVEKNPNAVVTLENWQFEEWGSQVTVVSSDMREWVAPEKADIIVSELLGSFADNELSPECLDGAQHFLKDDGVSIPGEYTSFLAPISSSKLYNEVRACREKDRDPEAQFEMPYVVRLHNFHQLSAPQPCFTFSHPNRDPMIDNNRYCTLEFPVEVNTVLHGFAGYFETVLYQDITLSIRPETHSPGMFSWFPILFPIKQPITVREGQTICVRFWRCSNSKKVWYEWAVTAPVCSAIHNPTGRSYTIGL
# T1 sequence (Q9BQA1 whole entry partner): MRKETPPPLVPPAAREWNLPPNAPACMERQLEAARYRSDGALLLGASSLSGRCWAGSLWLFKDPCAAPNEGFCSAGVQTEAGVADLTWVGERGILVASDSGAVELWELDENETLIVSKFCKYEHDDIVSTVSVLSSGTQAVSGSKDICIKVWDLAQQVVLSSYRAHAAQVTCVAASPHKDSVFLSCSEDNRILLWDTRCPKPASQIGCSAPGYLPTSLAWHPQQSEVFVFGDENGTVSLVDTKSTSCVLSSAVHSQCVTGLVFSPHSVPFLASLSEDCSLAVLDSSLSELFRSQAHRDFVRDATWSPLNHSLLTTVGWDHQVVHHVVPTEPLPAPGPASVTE
# Protocol: The plasma SDMA (Symmetrical Dimethylarginine) level was used as a pharmacodynamic biomarker (PD) to monitor the inhibition effect of Compound 1. SDMA was chosen for the blood PD biomarker because PRMT5 catalyzes the formation of SDMA in a number of nuclear and cytoplasmic proteins, and PRMT5 inhibition would result in a decrease of SDMA. The quantitative determination of SDMA was performed by using a liquid chromatography mass spectrometry (LC-MS/MS) assay which is an exceedingly sensitive and specific analytical technique that can precisely determine the identities and concentration of compounds such as SDMA within a sample. The assay had been validated from 1-500 ng/ml in plasma. […] The plasma SDMA inhibition were around 60% for the first two cohorts (N=1 in each cohort), including 0.5 mg QD and 0.5 mg BID. The plasma SDMA inhibition was around 80% from cohort 3 to cohort 9, including 1 mg BID (N=2), 2 mg BID (N=3), 4 mg BID (N=3), 6 mg BID (N=4), 4 mg QD (N=5), 6 mg QD (N=6), and 8 mg QD (N=3).
# [6] = Tolerability of BID dosing scheme in Phase 1 clinical trial; type: in vivo, human; details: BID (twice daily) dosing scheme, patients
# Text: These calculations, and in particular the half-life projection, were incorporated into the design of a Phase I clinical trial of Compound 1 [Study NCT03854227; A Phase 1 Study to Evaluate the Safety, Pharmacokinetics, and Pharmacodynamics of Escalating Doses Of [Compound 1] (PRMT Inhibitor) in Participants with Advanced or Metastatic Non-Small Cell Lung Cancer, Head And Neck Squamous Cell Carcinoma, Esophageal Cancer, Endometrial Cancer, Cervical Cancer And Bladder Cancer; first posted 26 Feb. 2019] which included BID (twice daily) dosing of 0.5 mg, 1 mg, 2 mg, 4 mg, 8 mg, 16 mg, 30 mg and 60 mg Compound 1. BID (twice daily) dosing was implemented for all doses thought to potentially be therapeutic in order to limit (i.e., lessen) the projected peak to trough ratio of Compound 1 in view of the predicted ˜6-hour half-life of Compound 1.
# In this regard, it is noted that the primary indications for Compound 1 are various cancer types which are often accompanied by patients' physical and emotional difficulties in executing self-care. Moreover, many cancer indications become more prevalent with advancing age and is often accompanied by decline in memory. […]
# Part 1A (dose escalation) has approximately 9 cohorts and enrolls approximately 40 participants. […] Dose limiting toxicities (DLT) were assessed at the end of Cycle 1 (28 days) to inform dose escalation and determine the MTD. […]
smiles,measurement,setting,value
"Cc1ncnc2c1ccn2[C@@H]1C[C@H](Oc2cc(C(F)F)c(F)c3c2CNCC3)[C@@H](O)[C@H]1O [Compound 1, (1S,2S,3S,5R)-3-((6-(difluoromethyl)-5-fluoro-1,2,3,4-tetrahydroisoquinolin-8-yl)oxy)-5-(4-methyl-7H-pyrrolo[2,3-d]pyrimidin-7-yl)cyclopentane-1,2-diol]",predicted in vivo plasma clearance (CL) in humans,[1],~3 mL/min/kg
same,predicted in vivo plasma clearance (CL) in humans,[2],~0.6 mL/min/kg
same,predicted half-life (t1/2) in humans,[3]; calculated t1/2=0.693*Vss/CL,~6 h
same,predicted steady-state volume of distribution (Vss) in humans,"[3]; mean unbound Vss scaling from rats and dogs, factoring in human plasma protein binding",1.6 L/kg
same,predicted peak to trough ratio in humans,[3]; once daily (QD) dosing,≥ 8
same,predicted peak to trough ratio in humans,[3]; twice daily (BID) dosing,~4
same,actual mean peak to trough ratio at steady state,"[4]; BID dosing, doses up to 2 mg BID, 15 days of dosing, patients",~2
same,peak-to-trough ratio at steady state (median),"[4]; QD oral dosing (4 mg, 6 mg, 8 mg QD cohorts), Day 15, patients",3.1
same,Cmax at 15 day,"[4]; human, plasma, 2 mg BID oral, steady state (day 15), patients, N=2, read-out: Cmax (mean maximum daily concentration)",26.9 ng/mL
same,concentration at 15 day,"[4]; human, plasma, 2 mg BID oral, steady state (day 15), patients, N=2, read-out: Cmin (mean minimum daily concentration)",14.6 ng/mL
same,plasma SDMA inhibition,"[5]; cohort 3 to cohort 9: 1, 2, 4, 6 mg BID and 4, 6, 8 mg QD",around 80%
same,inhibition at 0.5 mg,"[5]; human, first two cohorts: 0.5 mg QD and 0.5 mg BID (N=1 in each)",~60%
same,SDMA reduction over time,"[5]; plasma, different dose levels, patients (FIG. 8)",60-80%
same,tolerability,[6],well tolerated
